In article PMC4938538, “Inhibition of Pig Phosphoenolpyruvate Carboxykinase Isoenzymes by 3-Mercaptopicolinic Acid and Novel Inhibitors” (PLoS ONE, 2016):
Substitutions are numbered along the chain they refer to. “And” between values parts separate entries of the source, which are not always exact repeats. Equal values may be shown once. “Also recorded” adds a separate entry of the source. Read-outs that look alike come from different tables or passages of the source.

What was measured:
[1] = target: T1, PEPCK-C 139Leu (Sus scrofa, UniProt A0A4X1UM84, M139L); test: 3-MP inhibition kinetics (double reciprocal, secondary and Dixon plots); assay type: biochemical, pig
T1 construct: made in house; host or cells: Escherichia coli BL21 (DE3)
T1 sequence (A0A4X1UM84 1-622 M139L): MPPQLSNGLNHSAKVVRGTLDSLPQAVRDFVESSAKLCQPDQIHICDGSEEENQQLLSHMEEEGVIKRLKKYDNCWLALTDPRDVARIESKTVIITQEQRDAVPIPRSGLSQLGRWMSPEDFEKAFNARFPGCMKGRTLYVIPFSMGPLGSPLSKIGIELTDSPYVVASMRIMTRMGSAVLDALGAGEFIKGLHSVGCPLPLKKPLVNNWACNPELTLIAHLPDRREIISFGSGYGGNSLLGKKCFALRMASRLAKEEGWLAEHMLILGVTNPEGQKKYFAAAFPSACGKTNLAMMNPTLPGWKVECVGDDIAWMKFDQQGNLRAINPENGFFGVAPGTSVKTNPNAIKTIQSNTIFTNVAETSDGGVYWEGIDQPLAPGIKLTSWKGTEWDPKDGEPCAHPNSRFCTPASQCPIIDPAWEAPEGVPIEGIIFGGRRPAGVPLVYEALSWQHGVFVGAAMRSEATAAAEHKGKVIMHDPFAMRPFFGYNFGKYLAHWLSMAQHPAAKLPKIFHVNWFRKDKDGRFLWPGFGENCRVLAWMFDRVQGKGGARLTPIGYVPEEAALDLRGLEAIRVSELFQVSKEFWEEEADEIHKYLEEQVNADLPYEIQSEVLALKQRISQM
Experimental: (§1) PEPCK-C activity was measured in an UNICAM 500 spectrometer (UNICAM Analytical Systems, UK) with coupled spectrophotometric assays using pyruvate kinase and lactate dehydrogenase as auxiliary enzymes in PEP synthesis reaction and malate dehydrogenase in the reverse reaction.
(§2) 3-MP inhibitions assays in OAA synthesis direction were carried out as described before with the exception of the variable substrate (50–600 μM for PEP and 10–100 μM for GDP) and 3-MP concentration (10–100 μM). Assays in the direction of PEP synthesis were performed in 1 mL of a 100 mM HEPES buffer pH 7.4, containing 10 mM DTT, 0.2 mM MnCl2, 2 mM MgCl2, 1 mM GTP or 400 μM OAA, 1 mM ADP, 0.2 mM NADH, PEPCK-C and 5 units of each pyruvate kinase and lactate dehydrogenase. Reactions were initiated by addition of OAA. Variable substrates were 5–50 μM OAA or 25–500 μM GTP and 3-MP concentrations were between 10–400 μM. Rates were calculated by measuring the decreasing slope at 340 nm of absorbance after subtracting the rate of spontaneous NADH oxidation in the case of OAA synthesis or the rate of the blank which contained all the components of the mix but PEPCK-C in the case of PEP synthesis.
(§3) 3-MP inhibition assays were fitted in double reciprocal plots. To describe the mixed non-competitive inhibition, the double reciprocal equation can be written as: 1/v = Km/Vmax (1+[I]/Ki) 1/[S]+1/Vmax (1+[I]/αKi) (2)
(§4) Ki and αKi are the dissociation constants of the enzyme-inhibitor complex and the enzyme-inhibitor-substrate complex, respectively.
(§5) The equation for the Dixon plot is: 1/v = Km/Vmax[S]+1/Vmax+Km/Vmax[S]Ki (5)

[2] = target: T2, PEPCK-C 139Met (Sus scrofa, UniProt A0A4X1UM84); test: as above; assay type: biochemical, pig; design: made in house; host or cells: Escherichia coli BL21 (DE3)
T2 sequence (A0A4X1UM84 1-622): T1 sequence (A0A4X1UM84 1-622 M139L) with L139M
Experimental: as §1, §2, §3, §4, §5

Question: Which results are given for `O=C(O)c1ncccc1S` [3-MP, 3-mercaptopicolinic acid]?
Answer: Pattern of inhibition (GDP) ([1]; 139Leu, GDP as variable substrate): uncompetitive inhibitor; Pattern of inhibition (GTP) ([1]; 139Leu, GTP as variable substrate): uncompetitive inhibitor; Pattern of inhibition (OAA) ([1]; 139Leu, OAA as variable substrate): mixed non-competitive inhibitor; also recorded: Mixed NC; αKi (OAA) ([1]; 139Leu, OAA as variable substrate, PEP synthesis direction): 21 ± 13 ns μM; Ki ([1]; 139Leu, OAA as variable substrate, PEP synthesis direction, read-out: Ki (OAA)): 29 ± 1 µM; Pattern of inhibition (PEP) ([1]; 139Leu, PEP as variable substrate): mixed non-competitive inhibitor; also recorded: Mixed NC; αKi (PEP) ([1]; 139Leu, PEP as variable substrate, OAA synthesis direction): 31 ± 5 μM and 31 ± 5 ns μM; Ki ([1]; 139Leu, PEP as variable substrate, OAA synthesis direction, read-out: Ki (PEP)): 19 ± 4 µM; Ki ([1]; 139Leu, with respect to GDP, Dixon plot, substrates saturating, read-out: Ki (GDP)): 45 ± 0.8 µM; Ki ([1]; 139Leu, with respect to GTP, Dixon plot, substrates saturating, read-out: Ki (GTP)): 873 ± 144 µM; Ki for 139Leu larger than for 139Met (OAA binding) ([1]; OAA as variable substrate): 50%; Pattern of inhibition (GDP) ([2]; 139Met, GDP as variable substrate): uncompetitive inhibitor; Pattern of inhibition (GTP) ([2]; 139Met, GTP as variable substrate): uncompetitive inhibitor; Pattern of inhibition (OAA) ([2]; 139Met, OAA as variable substrate): mixed non-competitive inhibitor; also recorded: Mixed NC; αKi (OAA) ([2]; 139Met, OAA as variable substrate, PEP synthesis direction): 49 ± 18 µM; Ki ([2]; 139Met, OAA as variable substrate, PEP synthesis direction, read-out: Ki (OAA)): 18 ± 4 µM; Pattern of inhibition (PEP) ([2]; 139Met, PEP as variable substrate): mixed non-competitive inhibitor; also recorded: Mixed NC; αKi (PEP) ([2]; 139Met, PEP as variable substrate, OAA synthesis direction): 20 ± 4 µM; Ki ([2]; 139Met, PEP as variable substrate, OAA synthesis direction, read-out: Ki (PEP)): 16 ± 2 µM; Ki ([2]; 139Met, with respect to GDP, Dixon plot, substrates saturating, read-out: Ki (GDP)): 45 ± 3 µM; Ki ([2]; 139Met, with respect to GTP, Dixon plot, substrates saturating, read-out: Ki (GTP)): 273 ± 68 µM; Ki fold lower for 139Met than 139Leu (GTP) ([2]; GTP as variable substrate): 3 fold; Ki fold lower for 139Met than 139Leu (OAA) ([2]; OAA as variable substrate): 1.6 fold
